From patent publication US20190255019A1, “NOVEL DOSAGE REGIMEN” (Biogen MA Inc., priority 2016, published 2019)

Columns and labels:
rats = experiment: Preclinical safety pharmacology, tyramine-induced hypertension; format: in vivo, rat; settings: data not shown
Source text: (§1) The 36 day treatment duration in this study was rationally designed to determine whether tolerance developed for any potential effects of BIIB074 on SBP or DBP, since BP effects resolved by day 28 in the earlier phase 1 trial. The data from this study show a slight trend towards a decrease in the BP difference between BIIB074 and placebo between day 4 and day 35, although differences were minimal at all time points. […] Thus, the body of evidence, encompassing clinical and preclinical studies, supports safety and minimal effects of BIIB074 on BP/cardiovascular parameters.

healthy participants [1] = experiment: Phase 1 cross-over ambulatory blood pressure monitoring (ABPM) study, 300/400 mg BID; format: in vivo, human; settings: for Observations with DBP: Change > 10 and absolute value > 80 mmHg / Observations with SBP: Change > 10 and absolute value > 130 mmHg: outpatient, number of observations (%)
Procedure: This study reports the results of a Phase 1, randomized cross-over trial designed to assess inpatient and outpatient ambulatory blood pressure monitoring (ABPM) in healthy volunteers treated with the compound of Example 1 (BIIB074) for 36 days.
This was a Phase 1, randomized, double-blind, placebo-controlled, repeat dose, 2-period cross-over study to investigate the effect of BIIB074 300-400 mg bid on ambulatory blood pressure (ABP) in healthy participants (FIG. 2). The study comprised: screening (to occur a maximum of 30 days before the first baseline assessment); two 36-day treatment periods, each preceded by a baseline visit and separated by a 7-day washout (to minimize possible carry over effects); and a follow-up period of 7-14 days after last dose. Prior to this study, no females had received BIIB074; for this reason, a single dose BIIB074 session at the dose level of 400 mg was also conducted in female participants one week prior to the period 1 baseline visit. Following this session, some participants were predicted to exceed the predefined PK limit (area under the plasma concentration-time curve [AUC] 97 μg·h/mL) when receiving 400 mg bid at steady state. Therefore, in the subsequent phases of the study, all female participants received a lower dose of 300 mg bid (males received 400 mg bid).
The primary endpoint was change in 24 h average SBP and DBP from baseline to day 36 as determined by ABPM. Secondary outcome measures included: change in 24 h average SBP and DBP from baseline to days 4 and 15; change in average SBP and DBP within a 12 h dosing interval from baseline to days 14 and 35 (inpatient); change in 24 h average ambulatory heart rate from baseline to days 4, 15 and 36; proportion of participants whose 24 h SBP and DBP increased by <5, 5-9, 10-14, 15-19, and >20 mm Hg compared with baseline; PK parameters of BIIB074 following a single oral dose in healthy female participants, and following repeated oral doses given twice daily to healthy male and female participants; PK/pharmacodynamic (PD) analyses to examine the correlation between ABP and plasma levels and/or metrics of the systemic exposure of BIIB074.
ABP was collected over 24 hours on an outpatient basis at baseline and at days 4, 15 and 36, and over 12 hours on an inpatient basis at baseline, and at days 14 and 35. The ABPM device was placed on the non-dominant arm (except in clinical situations that prohibited measuring BP in the non-dominant arm). BP and heart rate were measured every 15 minutes.
Non-inferiority was based on the one-sided 95% confidence interval (CI) for BIIB074-placebo excluding […] in SBP or DBP. It was planned to recruit approximately 60 participants in order to obtain a minimum of 48 evaluable for ABPM during the repeat dose phase, for at least 90% power, assuming a within-subject standard deviation (SDw) of 8.21 mmHg.
ABPM data were analyzed using a repeated measures mixed effects model, whereby fixed effects were treatment, day, treatment*day, period, average baseline*day, period adjusted baseline*day, sex and treatment*sex; random effect was subject; and repeated effect was day. All summary statistics were carried out using SAS 8.02 for UNIX running under the Harmonisation of Analysis and Reporting Program (HARP) environment. PK parameters were calculated by standard non-compartmental analysis according to working practices and using Wn Nonlin Pro v. 5.2.

[2] = tested on: rat model of inflammation; experiment: Freud Complete Adjuvant induced inflammation model, mechanical hypersensitivity by weight bearing; format: in vivo
Procedure: FIG. 1: PK modelling plots: For all doses, the CTrough is higher than efficacious doses in animal model of inflammation. […] FCA1, an oral dose of 1 mg/kg was the minimal effective dose in this model. TGN (trigeminal neuralgia), PLSR (painful lumbosacral radiculopathy).
In this model, inflammation was induced by intraplantar injection of Freud Complete Adjuvant.
Mechanical hypersensitivity was then assessed using weight bearing.

trigeminal neuralgia = experiment: Clinical efficacy in trigeminal neuralgia; format: in vivo, human; settings: 150 mg tid, TN
Source text: In Table 1, free plasma CMax exposures of Example 1 obtained from modelling different dosing regimens were used to quantify the resulting amount of block at the primary target hNaV1.7. […] Doses of marketed drugs used in trigeminal neuralgia were compared using the same paradigm.

healthy participants [3] = experiment: Safety (adverse events, ECG) in 300/400 mg BID study; format: in vivo, human
Procedure: Safety was assessed through monitoring of adverse events (AEs), vital signs, electrocardiogram (ECG), and laboratory safety tests (including clinical chemistry). The safety population was the primary analysis population for this study and included all participants who received one or more doses of BIIB074. The PK population was defined as participants in the safety population for whom a PK sample was obtained and analysed.

dogs = settings: dog, in vivo
Source text: as §1

SMILES: Cl.NC(=O)[C@@H]1CC[C@H](c2ccc(OCc3ccccc3F)cc2)N1 [Example 1, (5R)-5-(4-{[(2-Fluorophenyl)methyl]oxy}phenyl)-L-prolinamide hydrochloride]
- effects on tyramine-induced hypertension (rats): no effects on tyramine-induced hypertension in rats
- average increase of SBP over the 24 h interval (healthy participants [1]; PK/PD, inpatient ABPM): < 2 mmHg
- observations with DBP increase more than 10 mmHg and absolute value >80 mmHg (healthy participants [1]; day 36): 6.9%
- observations with SBP increase more than 10 mmHg and absolute value >130 mmHg (healthy participants [1]; day 36): 5.0%
- slight increase in change from baseline for SBP, DBP and heart rate (healthy participants [1]; inpatient ABPM, days 14 and 35): 2.0-2.5 mmHg/bpm
- observations in category increase from baseline SBP >30 mmHg (healthy participants [1]; outpatient 24 h, day 36, 4/1249 observations): 0%
- observations in category increase from baseline DBP >20 mmHg (healthy participants [1]; outpatient 24 h, day 36, 35/1249 observations): 3%
- Observations with DBP: Change > 10 and absolute value > 80 mmHg (healthy participants [1]; day 4, 300-400 mg repeat dose): 137 (10.6%)
- Observations with SBP: Change > 10 and absolute value > 130 mmHg (healthy participants [1]; day 4, 300-400 mg repeat dose): 116 (9.0%)
- Observations with DBP: Change > 10 and absolute value > 80 mmHg (healthy participants [1]; day 15, 300-400 mg repeat dose): 109 (8.3%)
- Observations with SBP: Change > 10 and absolute value > 130 mmHg (healthy participants [1]; day 15, 300-400 mg repeat dose): 95 (7.2%)
- Observations with DBP: Change > 10 and absolute value > 80 mmHg (healthy participants [1]; day 36, 300-400 mg repeat dose): 86 (6.9%)
- Observations with SBP: Change > 10 and absolute value > 130 mmHg (healthy participants [1]; day 36, 300-400 mg repeat dose): 63 (5.0%)
- overall change in SBP and DBP, outpatient and inpatient ABPM (healthy participants [1]; repeat doses for 36 days): lack of clinically relevant change in SBP and DBP
- minimal effective dose ([2]; oral): 1 mg/kg
- effect on mechanical hypersensitivity ([2]; oral 5 mg/kg): fully reversed the mechanical hypersensitivity
- Clinical efficacy (trigeminal neuralgia): EFFICACY OBSERVED
- AEs of moderate intensity (healthy participants [3]; 300-400 mg bid repeat dose): 9
- AEs of severe intensity (healthy participants [3]; 300-400 mg bid repeat dose): 2
- participants withdrawn due to AEs while on BIIB074 (healthy participants [3]; of 7 AE withdrawals): 5
- serious AEs (healthy participants [3]; whole study): No serious AEs were reported
- effects on cardiovascular parameters (dogs): no effects of BIIB074 on cardiovascular parameters in dogs
